Common to all, as to conditions: Compound Concentration 10.0 uM, Hit No
Assay [1] has as its target Methyl-CpG-binding domain protein 4 (Homo sapiens) (UniProt O95243).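 Also: MBD4 activity read as fluorescence at 594 nm from cleavage and release of a quenched duplex DNA oligonucleotide, with APE1 coupled to incise the strand and raise turnover.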
Description: Inhibition of MBD4 by quantifying inhibition of MBD4-mediated cleavage and dissociation of quenched duplex DNA oligonucleotides, measured as fluorescence at 594 nm. To generate a functional strand incision and increase turn-over this assay is coupled to APE1.
The target in assay [2] is T1, Adenine DNA glycosylase (Homo sapiens) (UniProt Q9UIF7).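 Also: human MUTYH activity read as 594 nm fluorescence from cleavage and release of a quenched DNA duplex, coupled with APE1 for strand incision, lower signal meaning inhibition.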
T1 sequence (whole entry): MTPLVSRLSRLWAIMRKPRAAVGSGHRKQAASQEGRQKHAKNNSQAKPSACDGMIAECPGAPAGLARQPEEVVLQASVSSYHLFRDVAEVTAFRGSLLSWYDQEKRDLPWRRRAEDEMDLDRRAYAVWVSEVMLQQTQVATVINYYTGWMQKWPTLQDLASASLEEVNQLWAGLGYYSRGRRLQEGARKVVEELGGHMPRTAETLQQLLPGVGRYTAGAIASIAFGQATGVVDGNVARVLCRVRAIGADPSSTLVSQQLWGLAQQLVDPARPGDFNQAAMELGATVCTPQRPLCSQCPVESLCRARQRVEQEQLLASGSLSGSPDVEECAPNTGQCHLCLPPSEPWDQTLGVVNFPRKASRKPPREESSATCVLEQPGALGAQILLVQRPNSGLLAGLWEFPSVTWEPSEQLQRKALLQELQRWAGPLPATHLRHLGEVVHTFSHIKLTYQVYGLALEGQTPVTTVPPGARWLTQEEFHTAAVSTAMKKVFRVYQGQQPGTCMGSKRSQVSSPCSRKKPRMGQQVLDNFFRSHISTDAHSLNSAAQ
Description: Inhibition of MUTYH by quantifying inhibition of MUTYH-mediated cleavage and dissociation of quenched duplex DNA oligonucleotides, measured as fluorescence at 594 nm. To generate a functional strand incision and increase turn-over this assay is coupled to APE1.

Assay [3] deals with T2, Endonuclease 8-like 2 (Homo sapiens) (UniProt Q969S2).
T2 sequence (whole entry): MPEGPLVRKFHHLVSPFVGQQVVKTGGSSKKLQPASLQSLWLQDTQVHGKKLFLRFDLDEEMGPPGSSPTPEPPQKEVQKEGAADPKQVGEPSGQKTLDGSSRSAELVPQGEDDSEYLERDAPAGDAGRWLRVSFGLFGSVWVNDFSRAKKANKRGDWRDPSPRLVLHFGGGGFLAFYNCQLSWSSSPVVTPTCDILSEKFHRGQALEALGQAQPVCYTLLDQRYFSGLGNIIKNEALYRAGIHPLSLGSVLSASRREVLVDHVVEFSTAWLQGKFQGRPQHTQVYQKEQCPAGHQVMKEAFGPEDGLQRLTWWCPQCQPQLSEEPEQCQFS
Description: Inhibition of NEIL2 by quantifying inhibition of NEIL2-mediated cleavage and dissociation of quenched duplex DNA oligonucleotides, measured as fluorescence at 594 nm.

Assay [4] has as its target T3, Endonuclease III-like protein 1 (Homo sapiens) (UniProt P78549).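 Also: enzyme assay tracking NTHL1 cutting and release of a quenched double-stranded DNA oligo substrate, read as fluorescence at 594 nm.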
T3 sequence (whole entry): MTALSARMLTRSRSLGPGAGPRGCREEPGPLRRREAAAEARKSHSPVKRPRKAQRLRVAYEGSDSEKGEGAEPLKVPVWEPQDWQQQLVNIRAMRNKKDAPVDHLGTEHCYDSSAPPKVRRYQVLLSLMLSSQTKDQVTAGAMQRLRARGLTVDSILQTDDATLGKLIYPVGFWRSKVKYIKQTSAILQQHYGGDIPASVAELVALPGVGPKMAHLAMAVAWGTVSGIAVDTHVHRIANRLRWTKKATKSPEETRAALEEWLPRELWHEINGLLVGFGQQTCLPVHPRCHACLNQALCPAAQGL
Description: Inhibition of NTHL1 by quantifying inhibition of NTHL1-mediated cleavage and dissociation of quenched duplex DNA oligonucleotides, measured as fluorescence at 594 nm.

The target of assay [5] is N-glycosylase/DNA lyase (Homo sapiens) (UniProt O15527).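 Also: OGG1 cleavage of a quenched duplex DNA oligonucleotide, coupled to APE1 for strand incision, read as fluorescence at 594 nm.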
Sequence of N-glycosylase/DNA lyase (Homo sapiens) (O15527 whole entry): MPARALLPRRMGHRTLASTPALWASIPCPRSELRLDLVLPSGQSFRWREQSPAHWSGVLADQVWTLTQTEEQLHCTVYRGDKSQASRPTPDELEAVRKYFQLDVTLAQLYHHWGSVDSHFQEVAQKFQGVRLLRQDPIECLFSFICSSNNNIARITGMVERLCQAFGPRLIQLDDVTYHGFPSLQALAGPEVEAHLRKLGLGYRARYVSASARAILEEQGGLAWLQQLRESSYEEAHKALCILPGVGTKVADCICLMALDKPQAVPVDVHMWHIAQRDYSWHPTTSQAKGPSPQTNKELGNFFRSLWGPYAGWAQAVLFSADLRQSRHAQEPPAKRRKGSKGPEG
Description: Inhibition of OGG1 by quantifying inhibition of OGG1-mediated cleavage and dissociation of quenched duplex DNA oligonucleotides, measured as fluorescence at 594 nm. To generate a functional strand incision and increase turn-over this assay is coupled to APE1.
For assay [6], the target named is T4, Single-strand selective monofunctional uracil DNA glycosylase (Homo sapiens) (UniProt Q53HV7).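 Also: enzymatic SMUG1 assay coupled with APE1, reading fluorescence at 594 nm released when a quenched double-stranded DNA oligonucleotide substrate is cleaved and separated.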
T4 sequence (whole entry): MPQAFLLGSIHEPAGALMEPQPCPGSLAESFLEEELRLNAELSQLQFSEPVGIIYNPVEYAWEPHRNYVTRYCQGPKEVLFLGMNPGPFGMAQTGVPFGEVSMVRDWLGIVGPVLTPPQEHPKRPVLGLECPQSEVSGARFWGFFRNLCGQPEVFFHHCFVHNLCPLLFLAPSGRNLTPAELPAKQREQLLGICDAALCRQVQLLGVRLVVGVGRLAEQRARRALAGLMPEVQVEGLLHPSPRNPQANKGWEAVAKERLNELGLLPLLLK
Description: Inhibition of SMUG1 by quantifying inhibition of SMUG1-mediated cleavage and dissociation of quenched duplex DNA oligonucleotides, measured as fluorescence at 594 nm. To generate a functional strand incision and increase turn-over this assay is coupled to APE1.

Assay [7] deals with G/T mismatch-specific thymine DNA glycosylase (Homo sapiens) (UniProt Q13569).
Sequence of G/T mismatch-specific thymine DNA glycosylase (Homo sapiens) (Q13569 whole entry): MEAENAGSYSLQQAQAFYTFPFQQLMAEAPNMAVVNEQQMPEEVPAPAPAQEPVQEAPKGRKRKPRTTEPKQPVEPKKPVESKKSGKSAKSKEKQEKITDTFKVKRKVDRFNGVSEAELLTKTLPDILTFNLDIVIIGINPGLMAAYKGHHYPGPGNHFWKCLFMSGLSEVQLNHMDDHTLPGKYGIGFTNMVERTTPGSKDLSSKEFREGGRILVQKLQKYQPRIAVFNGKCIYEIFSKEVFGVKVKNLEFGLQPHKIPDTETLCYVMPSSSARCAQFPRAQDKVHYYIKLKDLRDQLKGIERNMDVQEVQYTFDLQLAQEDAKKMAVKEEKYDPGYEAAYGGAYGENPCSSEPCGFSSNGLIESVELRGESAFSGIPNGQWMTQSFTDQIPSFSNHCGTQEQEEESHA
Description: Inhibition of TDG by quantifying inhibition of TDG-mediated cleavage and dissociation of quenched duplex DNA oligonucleotides, measured as fluorescence at 594 nm. To generate a functional strand incision and increase turn-over this assay is coupled to APE1.
Assay [8] concerns the target Uracil-DNA glycosylase (Homo sapiens) (UniProt P13051).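 Also: UNG excision on a quenched double-stranded DNA oligo probe, with APE1 added for strand incision and turnover, read as fluorescence at 594 nm as strands separate.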
Description: Inhibition of UNG by quantifying inhibition of UNG-mediated cleavage and dissociation of quenched duplex DNA oligonucleotides, measured as fluorescence at 594 nm. To generate a functional strand incision and increase turn-over this assay is coupled to APE1.

Each structure is given as a SMILES string.

Sequence of Methyl-CpG-binding domain protein 4 (Homo sapiens) (O95243 whole entry, the tested form may be a part): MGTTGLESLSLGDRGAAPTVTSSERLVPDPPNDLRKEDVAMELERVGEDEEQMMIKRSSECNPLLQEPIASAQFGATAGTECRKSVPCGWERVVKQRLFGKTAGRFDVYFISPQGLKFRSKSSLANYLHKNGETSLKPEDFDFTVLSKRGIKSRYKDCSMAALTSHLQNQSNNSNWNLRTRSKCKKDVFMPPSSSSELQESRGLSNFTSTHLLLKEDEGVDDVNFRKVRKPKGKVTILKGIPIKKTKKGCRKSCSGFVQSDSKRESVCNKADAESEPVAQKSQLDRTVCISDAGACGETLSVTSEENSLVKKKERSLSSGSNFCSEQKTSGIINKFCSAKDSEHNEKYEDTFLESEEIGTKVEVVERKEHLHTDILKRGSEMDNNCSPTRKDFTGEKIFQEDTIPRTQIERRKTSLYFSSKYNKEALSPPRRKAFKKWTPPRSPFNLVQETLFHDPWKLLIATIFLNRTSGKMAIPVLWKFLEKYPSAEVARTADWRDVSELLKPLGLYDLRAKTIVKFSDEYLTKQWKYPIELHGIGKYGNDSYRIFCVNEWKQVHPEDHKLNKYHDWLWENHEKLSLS
Sequence of Uracil-DNA glycosylase (Homo sapiens) (P13051 whole entry): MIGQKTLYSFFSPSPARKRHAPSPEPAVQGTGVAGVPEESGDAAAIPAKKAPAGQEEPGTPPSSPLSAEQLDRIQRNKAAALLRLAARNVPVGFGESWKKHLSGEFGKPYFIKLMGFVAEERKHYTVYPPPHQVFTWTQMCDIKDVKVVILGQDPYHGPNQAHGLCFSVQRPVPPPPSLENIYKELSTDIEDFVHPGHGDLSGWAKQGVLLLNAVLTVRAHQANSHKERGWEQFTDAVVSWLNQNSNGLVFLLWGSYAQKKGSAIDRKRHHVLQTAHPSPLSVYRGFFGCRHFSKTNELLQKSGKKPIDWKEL

What is called inhibition is the drop in the measured response relative to a control, in per cent. As to `CC(=O)N1CCC(c2ccc(C(=O)NC(=N)N)cc2C(F)(F)F)CC1`, the inhibition in assay [1] was 58.8%; in assay [2], 0.114%; in assay [3], -0.744%; in assay [4], 5.94%; in assay [5] it was 3.38%; in assay [6], 16.4%. The values for the inhibition in assay [7] and in assay [8] were 47.6% and 3.89%, respectively.
In the case of `O=C(c1ccc2c(ccn2-c2ccc(F)cc2)c1)N1CC(N2CCN(C(=O)c3nccs3)CC2)C1`, the inhibition in assay [1] was 63.5%; in assay [2], -6.82%; in assay [3], -1.76%; in assay [4], -0.63%; in assay [5], 5%; in assay [6], 21.1%. Moreover, the inhibition was determined as 45.8% in assay [7] and 7.11% in assay [8].
For the compound `COc1cc(Nc2nc(C)cc(-c3cnn4nc(OC)ccc34)n2)cc(C(F)(F)F)c1`, the inhibition in assay [1] is 26.4%; in assay [2] it was -7.4%; in assay [3] it was 2.66%; in assay [4] it was 8.46%; in assay [5], -9.1%; in assay [6] it was 16.3%. In addition, the values for the inhibition in assay [7] and in assay [8] were 47.8% and -0.61%, respectively.
Turning to `CO[C@@H](C)c1c(Nc2ccc([C@H](N(C)C(=O)C3CCS(=O)(=O)CC3)C(F)(F)F)cc2)cnc2cc(Cl)nn12`, the inhibition in assay [1] was 77.6%; in assay [2], -6.71%; in assay [3], 5.63%; in assay [4] it was -3.92%; in assay [5], -4%; in assay [6], -7.05%. Besides, the inhibition in assay [7] is 48.6%; in assay [8], -1.74%.
For `CCC(=O)N[C@@H]1CC[C@H](C(=O)N(C)c2ccc(-c3nc4ccccc4o3)cc2)C1`, the inhibition is 54.4% in assay [1]; -7.15% in assay [2]; 4.61% in assay [3]; 3.97% in assay [4]; -5.03% in assay [5]; 5.39% in assay [6]. Moreover, the inhibition in assay [7] turned out to be 37.2%; in assay [8], 1.95%.
Turning to `COc1ccc(COc2ccc(Cc3cnc(N)nc3N)cc2OC)cc1`, the inhibition in assay [1] was 24.9%; in assay [2], -3.46%; in assay [3], -2.46%; in assay [4], -8.98%; in assay [5] it was 6.26%; in assay [6], 6.38%. For the same compound, the inhibition in assay [7] was 46.5%; in assay [8], -0.384%.
With `CCOC(=O)N1CCC(CN(Cc2ccc(Cl)cc2)Cc2ccc([N+](=O)[O-])s2)C1` (centres undefined), the inhibition in assay [1] is 55.4%; in assay [2], -8.96%; in assay [3], -4.57%; in assay [4] it was 7.92%; in assay [5], 16.5%; in assay [6] it was 16.2%. The figures for the inhibition in assay [7] and in assay [8] were 97.5% and -1.49%, respectively.
Take `Cc1nc(-c2ccc(C(F)(F)F)cc2)sc1C(=O)NCc1ccc(OC(C)(C)C(=O)O)cc1`: the inhibition is 62.8% in assay [1]; 6.62% in assay [2]; -7.38% in assay [3]; -7.86% in assay [4]; 20.2% in assay [5]; 17.9% in assay [6]. The inhibition came out at 53.6% in assay [7] and 5.42% in assay [8].
